From paper PMC9861390, “Synthesis and Molecular Docking of Some Novel 3-Thiazolyl-Coumarins as Inhibitors of VEGFR-2 Kinase” (Molecules, 2023)

Key:
VEGFR-2 = test system: VEGFR-2; design: method as in PMID 28942113, PMID 21078410, PMID 26916914, PMID 27367493, PMID 35807236; details: in Figure 2; cited from earlier work
[1] = test system: human breast cancer (MCF-7) cell line; experiment: MTT cytotoxicity assay on MCF-7; format: cell-based; details: MCF7, 24 h incubation, mean and standard error of three tests
Description: (§1) Afterward, the determination of the tested sample concentrations that were sufficient to kill 50 percent of the cell population (IC50) was done by using the cytotoxicity results in plotting a dose-response curve.
(§2) In addition, cytotoxic activities were reported as the average IC50 from three separate tests.
The cytotoxicity of the investigated substances was assessed and determined by MTT assay, and the detailed cytotoxicity assay is included in the Supplementary File S1 [57, 58].
1H-NMR spectra of compound 12c-1
(§3) The tested human breast cancer (MCF -7) cell lines and normal cell line LLC - Mk2 were obtained from the American Type Culture Collection (ATCC, Rockville, MD). The cells were grown on RPMI -1640 medium supplemented with 10% inactivated fetal calf serum and 50µg/mL gentamycin (Lonza, Belgium). The cells were maintained at 37 °C in a humidified atmosphere with 5% CO 2 and were subcultured two to three times a week during the period of experiment .
(§4) For antitumor assays, the tumor cell lines were suspended in medium at cell density of 5x10^4 cells/well in Corning® 96-well tissue culture plates and then incubated for 24 hours. The tested compounds were then added into 96-well plates (six replicates) to achieve eight concentrations for each compound. Six vehicle controls with media or 0.5 % DMSO were run for each 96 well plate as a control. After incubating for 24 h, the numbers of viable cells were determined by the MTT assay. Briefly, the media was removed from the 96-well plate and replaced with 100 µl of fresh culture RPMI 1640 medium without phenol red then 10
(§5) (1 picture or pasted object on this page, not shown here) […]
(§6) µL of the 12 mM MTT stock solution {5 mg of 3-(4,5-dimethylthiazol-2-yl)-2,5-diphenyltetrazolium bromide purchased from Sigma-Aldrich (St. Louis, MO) in 1 mL of Phosphate buffered saline} to each well including the untreated controls. The 96 well plates were then incubated at 37°C and 5% CO 2 for 4 hours.
(§7) An 85 µl aliquot of the media was removed from the wells, and 50 µL of DMSO was added to each well and mixed thoroughly with the pipette and incubated at 37 °C for 10 min. Then, the optical density was measured at 590 nm with the microplate reader (SunRise, TECAN, Inc, USA) to dete rmine the number of viable cells and the percentage of viability was calculated as [(ODt/ODc)]x100% where ODt is the mean optical density of wells treated with the tested sample and ODc is the mean optical density of untreated cells. The relation between surviving cells and drug concentration is plotted to get the survival curve of each tumor cell line after treatment with the specified compound. The 50% inhibitory concentration (IC 50), the concentration required to cause toxic effects in 50% of intact cells, was estimated from graphic plots of the dose response curve for each conc. using GraphPad Prism software (San Diego, CA. USA)[ 2].
1. Mosmann, T. Rapid colorimetric assay for cellular growth and survival: application to proliferation and cytotoxicity assays. J. Immunol. Methods 1983, 65, 55-63.

[2] = MTT cytotoxicity assay on normal cell line LLC-Mk2; format: cell-based; details: rhesus monkey, LLC-Mk2 kidney epithelial normal cells, mean and standard error
Description: as §1, §2
The cytotoxicity of the investigated substances was assessed and determined by MTT assay, and the detailed cytotoxicity assay is included in the Supplementary File S1 [57, 58]. […]
as §3, §4, §5, §6
as §7, with “2]. […]” for “2].”

Row | melting point [°C] | SMILES | VEGFR-2 inhibition (VEGFR-2) [%] | IC50 [1] [µM] | CC50 at 24 h [2] [µM]
1 |  | CO/C=N\C1=C(C#N)C(c2ccc(F)cc2)c2c(c3ccccc3oc2=O)C1 (stereo not drawn) [IV] | 94 |  | 
2 |  | CNC(=O)c1cc(Oc2ccc(NC(=O)Nc3ccc(Cl)c(C(F)(F)F)c3)cc2)ccn1 [Sorafenib, reference compound] |  | 5.1 ± 0.49 | 135 ± 4.08
3 | 201 to 203 | C/C(=N\Nc1nc(C)c(/N=N/c2ccccc2)s1)c1cc2cc(/N=N/c3ccccc3)ccc2oc1=O [Compound 6a] |  |  | 
4 |  | CC(=NNc1nc(C)c(N=Nc2ccc(C)cc2)s1)c1cc2cc(N=Nc3ccccc3)ccc2oc1=O [Compound 6b] |  | 11.2 ± 0.8 | 152 ± 9.3
5 | 205 to 207 | COc1ccc(-c2csc(NN=C(C)c3cc4cc(N=Nc5ccccc5)ccc4oc3=O)n2)cc1 [Compound 12b] |  |  | 
6 | 190 to 192 | CC(=NNC1=NC(=O)C(=NNc2ccc(Cl)cc2)S1)c1cc2cc(N=Nc3ccccc3)ccc2oc1=O [Compound 10b] |  |  | 
7 | 179 to 181 | COc1ccc(/N=N/c2sc(N/N=C(\C)c3cc4cc(/N=N/c5ccccc5)ccc4oc3=O)nc2C)cc1 [Compound 6c] |  | 14.1 ± 0.63 | 141 ± 5.15
8 |  | O=c1oc2cc(O)ccc2c(Oc2ccc(OCCN3CCCCC3)cc2)c1-c1ccc(F)cc1 [X = O] | 82.92 |  | 
9 |  | C/C(=N\c1ccc(F)cc1)c1c(O)c2ccccc2oc1=O [III] | 94 |  | 
10 |  | CC(=NNC1=NC(=O)C(=NNc2ccc([N+](=O)[O-])cc2)S1)c1cc2cc(N=Nc3ccccc3)ccc2oc1=O [Compound 10c] |  | 15.7 ± 0.67 | 163 ± 9.12
11 | 231 to 233 | C/C(=N\Nc1nc(-c2ccc([N+](=O)[O-])cc2)cs1)c1cc2cc(/N=N/c3ccccc3)ccc2oc1=O [Compound 12c] |  |  | 
12 |  | CC(=NNc1nc(C)c(N=Nc2ccc(Cl)cc2)s1)c1cc2cc(N=Nc3ccccc3)ccc2oc1=O [Compound 6d] |  | 10.5 ± 0.71 | 132 ± 8.26
13 | 216 to 218 | CC(=NNc1nc(C)c(N=Nc2ccc(Cl)cc2Cl)s1)c1cc2cc(N=Nc3ccccc3)ccc2oc1=O [Compound 6e] |  |  | 
14 | 177 to 179 | CC(=NNC(N)=S)c1cc2cc(N=Nc3ccccc3)ccc2oc1=O [Compound 3, 2-(1-(2-oxo-6-(phenyldiazenyl)-2H-chromen-3-yl)ethylidene)hydrazine-1-carbothioamide] |  |  | 
15 |  | O=c1oc2cc(O)ccc2c(Nc2ccc(OCCN3CCCCC3)cc2)c1-c1ccc(F)cc1 [X = NH] | 88.42 |  | 
16 | 217 to 219 | CC(=NNc1nc(-c2ccccc2)cs1)c1cc2cc(N=Nc3ccccc3)ccc2oc1=O [Compound 12a] |  |  | 
17 |  | CC(=NNC1=NC(=O)C(=NNc2ccc(C)cc2)S1)c1cc2cc(N=Nc3ccccc3)ccc2oc1=O [Compound 10a] |  | 28.6 ± 0.64 | 140 ± 10.3
